This note sets out measurements from the PolyMetriX glass transition set.

In the case of `*C(=O)OCC(C)(C)CSCC(C)(C)COC(=O)C1(C)CNC(*)(C)CN1` (repeat unit), the glass transition temperature worked out at 40.00 °C.

Compound `*CC(=O)NCCCCCCNC(=O)CCc1ccc(O*)cc1` (repeat unit) gave a glass transition temperature of 72.00 °C.

As for `*CC(=O)Nc1ccc(Cc2ccc(NC(=O)CN3C(=O)c4ccc(C(=O)c5ccc6c(c5)C(=O)N(*)C6=O)cc4C3=O)cc2)cc1` (repeat unit), the glass transition temperature stood at 233.00 °C.

In the case of `*CC(=O)Nc1ccc(NC(=O)c2ccc3c(c2)C(=O)N(*)C3=O)cc1` (repeat unit), the glass transition temperature came out at 292.00 °C.

`*CC(=O)Nc1ccc(Oc2ccc(-c3ccc(Oc4ccc(NC(=O)CN5C(=O)c6ccc(C(c7ccc8c(c7)C(=O)N(*)C8=O)(C(F)(F)F)C(F)(F)F)cc6C5=O)cc4)cc3)cc2)cc1` (repeat unit) gave a glass transition temperature of 245.00 °C.

Compound `*CC(=O)Nc1ccc(Oc2ccc(NC(=O)CN3C(=O)c4ccc(C(=O)c5ccc6c(c5)C(=O)N(*)C6=O)cc4C3=O)cc2)cc1` (repeat unit) yielded a glass transition temperature of 235.00 °C.

The compound `*CC(=O)Nc1ccc(Oc2ccc(NC(=O)c3ccc4c(c3)C(=O)N(*)C4=O)cc2)cc1` (repeat unit) registered a glass transition temperature of 262.00 °C.

In turn, `*CC(=O)Nc1ccc(Oc2ccc(Oc3ccc(NC(=O)c4ccc5c(c4)C(=O)N(*)C5=O)cc3)cc2)cc1` (repeat unit) came in with a glass transition temperature of 242.00 °C.

In turn, `*CC(=O)Nc1ccc(Oc2cccc(Oc3ccc(NC(=O)c4ccc5c(c4)C(=O)N(*)C5=O)cc3)c2)cc1` (repeat unit) yielded a glass transition temperature of 220.00 °C.

Compound `*CC(C(C)C)C(COC(=O)c1ccc(C(=O)O*)cc1)C(C)C` (repeat unit) came in with a glass transition temperature of 65.00 °C.

Compound `*CC(C)(C)C(=O)O*` (repeat unit) displayed a glass transition temperature of -12.00 °C.

Compound `*CC(C)(C)COC(=O)C1CCC(C(=O)O*)CC1` (repeat unit) yielded a glass transition temperature of 30.00 °C.

In turn, `*CC(C)(C)COC(=O)CCCCC(=O)O*` (repeat unit) gave a glass transition temperature of -31.5 °C.

With `*CC(C)(C)COC(=O)Cc1ccc(C(=O)O*)cc1` (repeat unit), the glass transition temperature was 33.00 °C.

The compound `*CC(C)(C)COC(=O)O*` (repeat unit) yielded a glass transition temperature of 25.00 °C.

In the case of `*CC(C)(C)CS(=O)(=O)CC(C)(C)COC(=O)c1ccc(C(=O)O*)cc1` (repeat unit), the glass transition temperature came out at 105.00 °C.

With `*CC(C)(CC)COC(=O)c1ccc(-c2ccc(C(=O)O*)cc2)cc1` (repeat unit), the glass transition temperature is 99.00 °C.

Consider `*CC(C)(COC(=O)NCCCCCCNC(=O)O*)C(=O)O` (repeat unit), for which the glass transition temperature is -26.00 °C.

For the compound `*CC(C)N1C(=O)C2C3C=CC(C4C(=O)N(*)C(=O)C34)C2C1=O` (repeat unit), the glass transition temperature was found to be 212.00 °C.

In turn, `*CC(CC)(CC)C(=O)O*` (repeat unit) returned a glass transition temperature of 60.00 °C.

`*CC(CC)(CC)COC(=O)c1ccc(-c2ccc(-c3ccc(C(=O)O*)cc3)cc2)cc1` (repeat unit) registered a glass transition temperature of -20.00 °C.

Compound `*CC(CCCCCCCCCCCC)COC(=O)NC(=O)c1ccc(C(=O)NC(=O)O*)cc1` (repeat unit) had a glass transition temperature of 75.00 °C.

For the compound `*CC(CCCCCCOc1ccc(/N=N/c2ccc(C)cc2)cc1)COC(=O)CCCCC(=O)O*` (repeat unit), the glass transition temperature was 29.00 °C.

Compound `*CC(CCCCCCOc1ccc(/N=N/c2ccc(OC)cc2)cc1)COC(=O)CCCCC(=O)O*` (repeat unit) displayed a glass transition temperature of 22.00 °C.

`*CC(O)CN(*)c1ccc(/N=N/c2ccc(Cl)cc2)cc1` (repeat unit) came in with a glass transition temperature of 160.00 °C.

With `*CC(OC(=O)C(CC(C)C)NC(=O)OCc1ccccc1)C(COC(=O)O*)OC(=O)C(CC(C)C)NC(=O)OCc1ccccc1` (repeat unit), the glass transition temperature stood at 50.90 °C.

In the case of `*CC(OC(=O)Oc1ccc(C(=O)OC)cc1)C(COC(=O)O*)OC(=O)Oc1ccc(C(=O)OC)cc1` (repeat unit), the glass transition temperature turned out to be 90.90 °C.

Turning to `*CCC(=O)NCCCCCCNC(=O)CCS*` (repeat unit), the glass transition temperature amounted to 27.00 °C.

In turn, `*CCC(=O)NCc1c(C)c(C)c(CNC(=O)CCO*)c(C)c1C` (repeat unit) registered a glass transition temperature of 191.00 °C.

`*CCC(=O)O*` (repeat unit) came in with a glass transition temperature of -24.00 °C.

In turn, `*CCC(C)CCC(=O)S*` (repeat unit) showed a glass transition temperature of -50.00 °C.

In turn, `*CCC(C)Oc1ccc(-c2ccc(C(=O)OCC(C)COC(=O)c3ccc(-c4ccc(O*)cc4)cc3)cc2)cc1` (repeat unit) yielded a glass transition temperature of 84.00 °C.

As for `*CCCCCCCCCCCCCCCCCCNC(=O)CCc1ccc(CCC(=O)N*)cc1` (repeat unit), the glass transition temperature worked out at 65.00 °C.

Compound `*CCCCCCNC(=O)CCP(=O)(CCC(=O)N*)c1ccccc1` (repeat unit) came in with a glass transition temperature of 29.00 °C.

For the compound `*CCCCCCNC(=O)CCP(=S)(CCC(=O)N*)c1ccccc1` (repeat unit), the glass transition temperature amounted to 43.00 °C.

As for `*CCCCCCNC(=O)CCc1ccc(CC(=O)N*)cc1` (repeat unit), the glass transition temperature was 87.00 °C.

In the case of `*CCCCCCNC(=O)CCc1ccc(CCC(=O)N*)cc1` (repeat unit), the glass transition temperature amounted to 85.00 °C.

Compound `*CCCCOCO*` (repeat unit) gave a glass transition temperature of -84.00 °C.

Consider `*CCCS*` (repeat unit), for which the glass transition temperature was -53.50 °C.

In the case of `*CCSCc1ccc(Cc2ccc(CSCCOC(=O)CCSCc3ccc(Cc4ccc(CSCCC(=O)O*)cc4)cc3)cc2)cc1` (repeat unit), the glass transition temperature stood at 12.00 °C.

For `*CCc1ccc(*)c(Br)c1` (repeat unit), the glass transition temperature worked out at 80.00 °C.

With `*CCc1ccc(*)c(C#N)c1` (repeat unit), the glass transition temperature is 90.00 °C.

`*CCc1ccc(*)c(CC)c1` (repeat unit) showed a glass transition temperature of 25.00 °C.

Take `*CCc1ccc(*)c(CCCC)c1` (repeat unit): the glass transition temperature worked out at 20.00 °C.

The compound `*COC(=O)OCC1OC(C)(C)OC1*` (repeat unit) gave a glass transition temperature of 51.30 °C.

Turning to `*COC(=O)OCC1OC(OCC)OC1*` (repeat unit), the glass transition temperature came to 23.50 °C.

Consider `*Cc1c(C)c(C)c(CNC(=O)CCCC(=O)N*)c(C)c1C` (repeat unit), for which the glass transition temperature turned out to be 192.00 °C.

For the compound `*Cc1cc(C)c(CNC(=O)CCCCC(=O)N*)cc1C` (repeat unit), the glass transition temperature is 70.00 °C.

`*Nc1cccc(NC(=O)c2cc(NC(=O)C(CCSC)N3C(=O)c4ccccc4C3=O)cc(C(*)=O)c2)c1` (repeat unit) displayed a glass transition temperature of 196.00 °C.

Turning to `*OC(=O)OCC1OC(C)(C)OC1COC(=O)OC1COC2C(*)COC12` (repeat unit), the glass transition temperature turned out to be 95.50 °C.

In turn, `*OC(COC(=O)C12CC3CC(CC(C(*)=O)(C3)C1)C2)COc1ccc(/N=N/c2ccc(C#N)cc2)cc1` (repeat unit) returned a glass transition temperature of 105.00 °C.

Compound `*OC(COC(=O)C1CCC(C(*)=O)CC1)COc1ccc(/N=N/c2ccc(C#N)cc2)cc1` (repeat unit) showed a glass transition temperature of 106.00 °C.

With `*OC(COCCOC)COC(*)=O` (repeat unit), the glass transition temperature is -50.00 °C.

`*O[Si](C)(C)CC[Si](*)(C)O[Si](C)(C)C` (repeat unit) came in with a glass transition temperature of -89.00 °C.

`*O[Si](C)(C)COC(=O)CCCCCCCCC(=O)Oc1ccc(S(=O)(=O)c2ccc(Oc3ccc(/C=C4\CCC/C(=C\c5ccc(Oc6ccc(S(=O)(=O)c7ccc(OC(=O)CCCCCCCCC(=O)OC[Si](*)(C)C)cc7)cc6)cc5)C4=O)cc3)cc2)cc1` (repeat unit) yielded a glass transition temperature of 80.00 °C.

For `*Oc1ccc(C(=O)CNc2ccc(S(=O)(=O)c3ccc(NCC(=O)c4ccc(*)cc4)cc3)cc2)cc1` (repeat unit), the glass transition temperature was determined as 247.00 °C.

Take `*Oc1ccc(CC(NC(=O)CCc2ccc(OC(=O)CCCCC(*)=O)cc2)C(=O)OCc2ccccc2)cc1` (repeat unit): the glass transition temperature turned out to be 54.50 °C.

Compound `*Oc1ccc(CC(NC(=O)CCc2ccc(OC(=O)COCC(*)=O)cc2)C(=O)OCc2ccccc2)cc1` (repeat unit) gave a glass transition temperature of 76.00 °C.

`*Oc1ccc(NC(=O)c2cc(NC(=O)CCN3C(=O)c4ccccc4C3=O)cc(C(=O)Nc3ccc(*)cc3)c2)cc1` (repeat unit) registered a glass transition temperature of 240.00 °C.

Compound `*Oc1ccc(NCC(=O)c2ccc(Sc3ccc(C(=O)CNc4ccc(*)cc4)cc3)cc2)cc1` (repeat unit) came in with a glass transition temperature of 208.00 °C.

Compound `*Oc1ccc(Oc2ccc(NC(=O)c3cc(NC(=O)c4ccc(OC(C)=O)cc4)cc(C(=O)Nc4ccc(*)cc4)c3)cc2)cc1` (repeat unit) yielded a glass transition temperature of 251.00 °C.

`*Oc1cccc(NC(=O)c2cc(NC(=O)c3ccc(OC(C)=O)cc3)cc(C(=O)Nc3ccc(*)cc3)c2)c1` (repeat unit) showed a glass transition temperature of 251.00 °C.

For `*c1ccc(OCCN(C)c2ccc(/C=C/C3=CC(=C4/C(=O)c5ccccc5C4=C(C#N)C#N)/C=C(/C=C/c4ccc(N(C)CCOc5ccc(-c6nc7ccc(Oc8ccc9nc(*)c(-c%10ccccc%10)nc9c8)cc7nc6-c6ccccc6)cc5)cc4)O3)cc2)cc1` (repeat unit), the glass transition temperature was found to be 260.00 °C.

The compound `*c1ccc(OCCN(CCOc2ccc(-c3cc(-c4ccccc4)c4cc(Oc5ccc6nc(*)cc(-c7ccccc7)c6c5)ccc4n3)cc2)c2ccc(C(C#N)=C(C#N)C#N)cc2)cc1` (repeat unit) displayed a glass transition temperature of 175.00 °C.

As to `*c1ccc(OCCN(CCOc2ccc(-c3nc4ccc(Oc5ccc6nc(*)c(-c7ccccc7)nc6c5)cc4nc3-c3ccccc3)cc2)c2ccc(/N=N/c3ccc([N+](=O)[O-])cc3)cc2)cc1` (repeat unit), the glass transition temperature came out at 199.00 °C.

Turning to `*c1ccc(OCCN(CCOc2ccc(-c3nc4ccc(Oc5ccc6nc(*)c(-c7ccccc7)nc6c5)cc4nc3-c3ccccc3)cc2)c2ccc(/N=N/c3ccc([N+](=O)[O-])cc3C)cc2)cc1` (repeat unit), the glass transition temperature amounted to 188.00 °C.
